Assay results reported in the kinase profiling compilation of Christmann-Franck et al. (2016).

Experiments:
Test in all cases: radiometric filter-binding kinase assay, Kinase HotSpot
Details in all cases: compound 0.5 µM; ATP 10 µM
AKT2 (human) = AKT2 (human) (UniProt P31751)
AURKB (human) = AURKB (human) (UniProt Q96GD4)
AXL (human) = AXL (human) (UniProt P30530)
CAMK2G (human) = CAMK2G (human) (UniProt Q13555)
CDK7 CCNH MNAT1 (human) = CDK7 CCNH MNAT1 (human) (UniProt P50613+P51948+P51946)
CSF1R (human) = CSF1R (human) (UniProt P07333)
CSNK1G1 (human) = CSNK1G1 (human) (UniProt Q9HCP0)
DYRK3 (human) = DYRK3 (human) (UniProt O43781)
EPHA4 (human) = EPHA4 (human) (UniProt P54764)
EPHB1 (human) = EPHB1 (human) (UniProt P54762)
EPHB4 (human) = EPHB4 (human) (UniProt P54760)
ERBB4 (human) = ERBB4 (human) (UniProt Q15303)
HCK (human) = HCK (human) (UniProt P08631)
HIPK2 (human) = HIPK2 (human) (UniProt Q9H2X6)
INSRR (human) = INSRR (human) (UniProt P14616)
INSRR (human), sequence (P14616 whole entry, looked up): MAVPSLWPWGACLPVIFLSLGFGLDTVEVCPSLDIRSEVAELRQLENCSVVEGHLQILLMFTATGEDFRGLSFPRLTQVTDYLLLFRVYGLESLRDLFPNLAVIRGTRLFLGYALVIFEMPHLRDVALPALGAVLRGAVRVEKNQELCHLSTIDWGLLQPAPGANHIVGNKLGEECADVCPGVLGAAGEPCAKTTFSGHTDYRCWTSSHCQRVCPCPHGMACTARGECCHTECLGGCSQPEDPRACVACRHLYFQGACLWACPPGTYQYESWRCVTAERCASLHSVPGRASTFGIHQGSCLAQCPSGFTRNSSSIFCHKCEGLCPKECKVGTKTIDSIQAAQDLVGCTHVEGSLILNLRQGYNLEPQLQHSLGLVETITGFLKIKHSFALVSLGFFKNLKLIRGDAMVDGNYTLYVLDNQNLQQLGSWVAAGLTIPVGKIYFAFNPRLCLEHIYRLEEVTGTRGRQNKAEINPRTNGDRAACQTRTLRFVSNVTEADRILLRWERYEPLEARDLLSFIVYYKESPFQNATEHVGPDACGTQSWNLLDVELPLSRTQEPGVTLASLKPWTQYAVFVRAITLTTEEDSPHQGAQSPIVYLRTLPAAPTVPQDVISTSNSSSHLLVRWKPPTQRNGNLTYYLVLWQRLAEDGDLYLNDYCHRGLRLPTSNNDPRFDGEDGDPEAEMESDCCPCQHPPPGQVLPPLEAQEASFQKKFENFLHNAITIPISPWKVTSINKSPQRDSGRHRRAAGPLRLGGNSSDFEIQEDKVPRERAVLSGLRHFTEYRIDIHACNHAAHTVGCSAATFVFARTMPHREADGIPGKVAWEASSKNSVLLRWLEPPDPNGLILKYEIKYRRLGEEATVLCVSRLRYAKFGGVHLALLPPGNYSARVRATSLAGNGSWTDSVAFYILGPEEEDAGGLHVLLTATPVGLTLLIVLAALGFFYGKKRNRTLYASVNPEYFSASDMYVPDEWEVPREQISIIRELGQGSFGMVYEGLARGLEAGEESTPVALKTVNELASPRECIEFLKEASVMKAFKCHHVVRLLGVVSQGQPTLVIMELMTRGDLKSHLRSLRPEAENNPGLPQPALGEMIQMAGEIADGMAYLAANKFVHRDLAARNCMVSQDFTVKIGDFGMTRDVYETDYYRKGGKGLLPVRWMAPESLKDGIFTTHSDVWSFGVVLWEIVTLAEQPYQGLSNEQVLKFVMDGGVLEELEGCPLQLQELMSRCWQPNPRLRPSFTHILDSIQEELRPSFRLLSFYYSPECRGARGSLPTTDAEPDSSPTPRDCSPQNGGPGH

ITK (human) = ITK (human) (UniProt Q08881)
ITK (human), sequence (Q08881 whole entry, looked up): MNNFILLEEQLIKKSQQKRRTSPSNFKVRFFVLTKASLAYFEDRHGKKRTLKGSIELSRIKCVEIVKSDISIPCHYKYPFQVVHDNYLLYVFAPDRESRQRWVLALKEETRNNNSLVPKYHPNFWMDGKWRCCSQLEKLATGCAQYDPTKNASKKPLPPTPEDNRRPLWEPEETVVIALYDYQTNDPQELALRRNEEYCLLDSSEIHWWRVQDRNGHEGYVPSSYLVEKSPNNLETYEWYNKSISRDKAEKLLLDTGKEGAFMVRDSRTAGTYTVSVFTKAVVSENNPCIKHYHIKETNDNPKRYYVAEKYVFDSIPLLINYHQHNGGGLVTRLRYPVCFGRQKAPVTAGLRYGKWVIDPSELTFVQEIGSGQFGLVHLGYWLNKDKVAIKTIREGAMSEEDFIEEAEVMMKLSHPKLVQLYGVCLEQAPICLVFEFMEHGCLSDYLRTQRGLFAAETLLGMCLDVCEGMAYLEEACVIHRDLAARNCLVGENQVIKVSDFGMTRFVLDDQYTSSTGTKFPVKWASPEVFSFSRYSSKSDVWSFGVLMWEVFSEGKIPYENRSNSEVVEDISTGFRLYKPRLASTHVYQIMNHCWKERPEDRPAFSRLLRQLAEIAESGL

JAK2 JH1 JH2 (human) = JAK2 JH1 JH2 (human) (UniProt O60674)
JAK2 JH1 JH2 (human), sequence (O60674 whole entry, looked up): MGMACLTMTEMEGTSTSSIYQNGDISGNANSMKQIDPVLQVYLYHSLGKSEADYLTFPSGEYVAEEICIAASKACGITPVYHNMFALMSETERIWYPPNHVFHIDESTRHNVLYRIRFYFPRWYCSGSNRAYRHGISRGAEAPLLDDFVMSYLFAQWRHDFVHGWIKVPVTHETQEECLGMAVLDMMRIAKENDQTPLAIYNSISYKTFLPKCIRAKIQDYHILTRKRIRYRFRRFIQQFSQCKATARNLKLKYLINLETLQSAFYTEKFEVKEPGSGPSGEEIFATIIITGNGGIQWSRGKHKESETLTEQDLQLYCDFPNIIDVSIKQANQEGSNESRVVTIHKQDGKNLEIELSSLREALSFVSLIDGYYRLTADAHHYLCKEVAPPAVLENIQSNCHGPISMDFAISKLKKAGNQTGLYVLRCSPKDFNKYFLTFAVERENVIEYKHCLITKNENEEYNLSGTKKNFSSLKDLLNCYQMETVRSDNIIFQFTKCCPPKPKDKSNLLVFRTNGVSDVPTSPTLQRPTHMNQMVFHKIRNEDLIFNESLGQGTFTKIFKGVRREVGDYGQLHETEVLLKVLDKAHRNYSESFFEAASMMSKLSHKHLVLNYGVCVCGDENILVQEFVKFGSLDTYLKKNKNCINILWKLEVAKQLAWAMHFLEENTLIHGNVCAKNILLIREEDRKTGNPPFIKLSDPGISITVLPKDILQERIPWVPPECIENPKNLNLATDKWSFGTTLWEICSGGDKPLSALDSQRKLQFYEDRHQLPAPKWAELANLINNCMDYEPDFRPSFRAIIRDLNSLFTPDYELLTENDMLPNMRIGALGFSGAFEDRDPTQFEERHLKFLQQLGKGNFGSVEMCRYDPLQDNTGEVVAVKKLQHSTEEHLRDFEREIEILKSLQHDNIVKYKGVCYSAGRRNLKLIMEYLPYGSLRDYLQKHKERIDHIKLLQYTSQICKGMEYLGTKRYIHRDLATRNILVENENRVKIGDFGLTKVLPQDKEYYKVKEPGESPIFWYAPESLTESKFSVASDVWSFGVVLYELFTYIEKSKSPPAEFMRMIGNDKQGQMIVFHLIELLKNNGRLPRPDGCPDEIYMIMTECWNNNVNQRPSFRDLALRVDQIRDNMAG

MAP2K2 (human) = MAP2K2 (human) (UniProt P36507)
MAPK12 (human) = MAPK12 (human) (UniProt P53778)
MAPK3 (human) = MAPK3 (human) (UniProt P27361)
MAPKAPK3 (human) = MAPKAPK3 (human) (UniProt Q16644)
MAPKAPK5 (human) = MAPKAPK5 (human) (UniProt Q8IW41)
MERTK (human) = MERTK (human) (UniProt Q12866)
MLTK (human) = MLTK (human) (UniProt Q9NYL2)
NEK4 (human) = NEK4 (human) (UniProt P51957)
NUAK1 (human) = NUAK1 (human) (UniProt O60285)
NUAK2 (human) = NUAK2 (human) (UniProt Q9H093)
PAK2 (human) = PAK2 (human) (UniProt Q13177)
PAK2 (human), sequence (Q13177 whole entry, looked up): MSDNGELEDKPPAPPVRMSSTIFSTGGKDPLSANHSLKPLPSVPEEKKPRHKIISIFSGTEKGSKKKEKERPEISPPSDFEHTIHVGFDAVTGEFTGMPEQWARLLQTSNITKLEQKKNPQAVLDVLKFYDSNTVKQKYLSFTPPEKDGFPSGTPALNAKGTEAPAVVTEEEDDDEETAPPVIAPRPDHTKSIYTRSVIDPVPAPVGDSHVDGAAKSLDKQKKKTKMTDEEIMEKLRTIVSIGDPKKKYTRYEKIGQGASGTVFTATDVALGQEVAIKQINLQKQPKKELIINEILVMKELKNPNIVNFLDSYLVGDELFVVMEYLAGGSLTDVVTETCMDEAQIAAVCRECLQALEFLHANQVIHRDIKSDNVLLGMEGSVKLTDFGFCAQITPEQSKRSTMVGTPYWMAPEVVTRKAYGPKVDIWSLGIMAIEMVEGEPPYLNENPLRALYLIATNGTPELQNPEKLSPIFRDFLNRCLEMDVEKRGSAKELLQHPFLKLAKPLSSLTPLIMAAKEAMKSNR

PASK (human) = PASK (human) (UniProt Q96RG2)
PDGFRA (human) = PDGFRA (human) (UniProt P16234)
PDPK1 (human) = PDPK1 (human) (UniProt O15530)
PHKG2 (human) = PHKG2 (human) (UniProt P15735)
PKN1 (human) = PKN1 (human) (UniProt Q16512)
PKN2 (human) = PKN2 (human) (UniProt Q16513)
PRKACA (human) = PRKACA (human) (UniProt P17612)
PRKCE (human) = PRKCE (human) (UniProt Q02156)
PTK2 (human) = PTK2 (human) (UniProt Q05397)
PTK2B (human) = PTK2B (human) (UniProt Q14289)
PTK2B (human), sequence (Q14289 whole entry, looked up): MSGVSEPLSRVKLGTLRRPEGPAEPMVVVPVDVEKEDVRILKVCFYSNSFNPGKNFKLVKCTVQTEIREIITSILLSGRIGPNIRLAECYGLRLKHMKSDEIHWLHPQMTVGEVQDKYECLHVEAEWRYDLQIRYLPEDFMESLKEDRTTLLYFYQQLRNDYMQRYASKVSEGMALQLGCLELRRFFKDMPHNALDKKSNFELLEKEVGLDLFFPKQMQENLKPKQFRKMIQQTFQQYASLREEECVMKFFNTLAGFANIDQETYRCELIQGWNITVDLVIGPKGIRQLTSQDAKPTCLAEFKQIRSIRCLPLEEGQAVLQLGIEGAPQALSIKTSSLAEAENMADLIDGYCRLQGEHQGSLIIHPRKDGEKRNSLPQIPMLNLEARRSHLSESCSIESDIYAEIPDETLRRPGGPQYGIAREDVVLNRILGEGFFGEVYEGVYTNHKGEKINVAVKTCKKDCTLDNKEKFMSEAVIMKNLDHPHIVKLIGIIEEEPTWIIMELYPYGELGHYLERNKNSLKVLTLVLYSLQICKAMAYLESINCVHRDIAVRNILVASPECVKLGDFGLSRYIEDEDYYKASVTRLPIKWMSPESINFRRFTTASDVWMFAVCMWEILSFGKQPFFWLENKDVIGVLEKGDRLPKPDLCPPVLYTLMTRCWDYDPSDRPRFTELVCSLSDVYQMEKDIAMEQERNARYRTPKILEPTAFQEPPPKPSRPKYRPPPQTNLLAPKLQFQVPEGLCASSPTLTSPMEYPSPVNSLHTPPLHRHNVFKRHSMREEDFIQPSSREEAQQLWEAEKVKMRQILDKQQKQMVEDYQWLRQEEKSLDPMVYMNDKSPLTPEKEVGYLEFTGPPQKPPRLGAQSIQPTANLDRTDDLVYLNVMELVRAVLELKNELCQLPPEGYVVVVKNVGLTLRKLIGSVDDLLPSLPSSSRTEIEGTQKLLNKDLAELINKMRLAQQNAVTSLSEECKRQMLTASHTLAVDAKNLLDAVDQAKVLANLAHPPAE

SGK3 (human) = SGK3 (human) (UniProt Q96BR1)
SRPK1 (human) = SRPK1 (human) (UniProt Q96SB4)
STK10 (human) = STK10 (human) (UniProt O94804)
WNK3 (human) = WNK3 (human) (UniProt Q9BYP7)

AKT2 (human), sequence (P31751 whole entry, looked up): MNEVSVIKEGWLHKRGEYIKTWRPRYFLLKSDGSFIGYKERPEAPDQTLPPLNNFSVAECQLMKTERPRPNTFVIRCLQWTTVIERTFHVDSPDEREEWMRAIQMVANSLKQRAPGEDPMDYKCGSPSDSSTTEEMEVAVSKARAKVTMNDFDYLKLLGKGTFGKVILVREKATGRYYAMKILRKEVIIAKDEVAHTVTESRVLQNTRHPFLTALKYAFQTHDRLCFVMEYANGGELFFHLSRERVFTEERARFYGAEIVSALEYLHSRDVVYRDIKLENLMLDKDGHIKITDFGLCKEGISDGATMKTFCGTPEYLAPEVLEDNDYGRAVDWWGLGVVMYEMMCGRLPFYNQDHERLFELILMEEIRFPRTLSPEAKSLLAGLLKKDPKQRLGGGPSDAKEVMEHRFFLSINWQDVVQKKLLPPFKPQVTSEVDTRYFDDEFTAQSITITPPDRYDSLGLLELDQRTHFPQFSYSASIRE

Compound: O=C1Nc2ccc(Cl)cc2/C1=C/c1cc(Cl)c(O)c(Cl)c1
- residual activity (AKT2 (human)): 93.9%
- residual activity (AURKB (human)): 9.19%
- residual activity (AXL (human)): 106%
- residual activity (CAMK2G (human)): 119%
- residual activity (CDK7 CCNH MNAT1 (human)): 96.7%
- residual activity (CSF1R (human)): 77.9%
- residual activity (CSNK1G1 (human)): 89%
- residual activity (DYRK3 (human)): 91.8%
- residual activity (EPHA4 (human)): 93.1%
- residual activity (EPHB1 (human)): 91%
- residual activity (EPHB4 (human)): 100%
- residual activity (ERBB4 (human)): 94.2%
- residual activity (HCK (human)): 83.2%
- residual activity (HIPK2 (human)): 122%
- residual activity (INSRR (human)): 100%
- residual activity (ITK (human)): 91.8%
- residual activity (JAK2 JH1 JH2 (human)): 91.1%
- residual activity (MAP2K2 (human)): 82%
- residual activity (MAPK12 (human)): 90.5%
- residual activity (MAPK3 (human)): 88.2%
- residual activity (MAPKAPK3 (human)): 88.4%
- residual activity (MAPKAPK5 (human)): 92.4%
- residual activity (MERTK (human)): 88.4%
- residual activity (MLTK (human)): 77.4%
- residual activity (NEK4 (human)): 88.2%
- residual activity (NUAK1 (human)): 72.5%
- residual activity (NUAK2 (human)): 78.7%
- residual activity (PAK2 (human)): 96.8%
- residual activity (PASK (human)): 70%
- residual activity (PDGFRA (human)): 70.3%
- residual activity (PDPK1 (human)): 103%
- residual activity (PHKG2 (human)): 98.4%
- residual activity (PKN1 (human)): 93%
- residual activity (PKN2 (human)): 114%
- residual activity (PRKACA (human)): 101%
- residual activity (PRKCE (human)): 100%
- residual activity (PTK2 (human)): 91.5%
- residual activity (PTK2B (human)): 96.7%
- residual activity (SGK3 (human)): 98.6%
- residual activity (SRPK1 (human)): 106%
- residual activity (STK10 (human)): 77.1%
- residual activity (WNK3 (human)): 90.7%

Compound: N#CC(C#N)=C(N)/C(C#N)=C/c1ccc(O)cc1
- residual activity (AKT2 (human)): 92.8%
- residual activity (AURKB (human)): 91%
- residual activity (AXL (human)): 93.7%
- residual activity (CAMK2G (human)): 89.4%
- residual activity (CDK7 CCNH MNAT1 (human)): 91.2%
- residual activity (CSF1R (human)): 98%
- residual activity (CSNK1G1 (human)): 93.4%
- residual activity (DYRK3 (human)): 97.7%
- residual activity (EPHA4 (human)): 96%
- residual activity (EPHB1 (human)): 88.3%
- residual activity (EPHB4 (human)): 88.1%
- residual activity (ERBB4 (human)): 92.7%
- residual activity (HCK (human)): 98.6%
- residual activity (HIPK2 (human)): 102%
- residual activity (INSRR (human)): 99.9%
- residual activity (ITK (human)): 98.7%
- residual activity (JAK2 JH1 JH2 (human)): 102%
- residual activity (MAP2K2 (human)): 103%
- residual activity (MAPK12 (human)): 92.6%
- residual activity (MAPK3 (human)): 101%
- residual activity (MAPKAPK3 (human)): 99.9%
- residual activity (MAPKAPK5 (human)): 94.2%
- residual activity (MERTK (human)): 93.5%
- residual activity (MLTK (human)): 95.7%
- residual activity (NEK4 (human)): 93.3%
- residual activity (NUAK1 (human)): 92.3%
- residual activity (NUAK2 (human)): 122%
- residual activity (PAK2 (human)): 86%
- residual activity (PASK (human)): 82.9%
- residual activity (PDGFRA (human)): 97.8%
- residual activity (PDPK1 (human)): 99.4%
- residual activity (PHKG2 (human)): 96.7%
- residual activity (PKN1 (human)): 89%
- residual activity (PKN2 (human)): 96.9%
- residual activity (PRKACA (human)): 100%
- residual activity (PRKCE (human)): 89.3%
- residual activity (PTK2 (human)): 98.5%
- residual activity (PTK2B (human)): 97.4%
- residual activity (SGK3 (human)): 103%
- residual activity (SRPK1 (human)): 100%
- residual activity (STK10 (human)): 92.4%
- residual activity (WNK3 (human)): 99.8%

Compound: Oc1cccc(-c2nc(N3CCOCC3)c3oc4ncccc4c3n2)c1
- residual activity (AKT2 (human)): 99.1%
- residual activity (AURKB (human)): 99.4%
- residual activity (AXL (human)): 105%
- residual activity (CAMK2G (human)): 100%
- residual activity (CDK7 CCNH MNAT1 (human)): 99.9%
- residual activity (CSF1R (human)): 108%
- residual activity (CSNK1G1 (human)): 89.4%
- residual activity (DYRK3 (human)): 94.9%
- residual activity (EPHA4 (human)): 96.4%
- residual activity (EPHB1 (human)): 89.6%
- residual activity (EPHB4 (human)): 104%
- residual activity (ERBB4 (human)): 97.6%
- residual activity (HCK (human)): 91.9%
- residual activity (HIPK2 (human)): 102%
- residual activity (INSRR (human)): 114%
- residual activity (ITK (human)): 93.1%
- residual activity (JAK2 JH1 JH2 (human)): 92.6%
- residual activity (MAP2K2 (human)): 85%
- residual activity (MAPK12 (human)): 93.4%
- residual activity (MAPK3 (human)): 94.1%
- residual activity (MAPKAPK3 (human)): 93.9%
- residual activity (MAPKAPK5 (human)): 85.7%
- residual activity (MERTK (human)): 87.8%
- residual activity (MLTK (human)): 96.2%
- residual activity (NEK4 (human)): 90.4%
- residual activity (NUAK1 (human)): 86.6%
- residual activity (NUAK2 (human)): 75.3%
- residual activity (PAK2 (human)): 97.5%
- residual activity (PASK (human)): 83.8%
- residual activity (PDGFRA (human)): 99.4%
- residual activity (PDPK1 (human)): 103%
- residual activity (PHKG2 (human)): 99.1%
- residual activity (PKN1 (human)): 101%
- residual activity (PKN2 (human)): 87.6%
- residual activity (PRKACA (human)): 99.5%
- residual activity (PRKCE (human)): 100%
- residual activity (PTK2 (human)): 93.5%
- residual activity (PTK2B (human)): 103%
- residual activity (SGK3 (human)): 95.8%
- residual activity (SRPK1 (human)): 105%
- residual activity (STK10 (human)): 92.1%
- residual activity (WNK3 (human)): 93.9%

Compound: CCCC(=O)Oc1ccc2[nH]c(C(=O)c3cc4ccccc4[nH]3)cc2c1
- residual activity (AKT2 (human)): 105%
- residual activity (AURKB (human)): 97.1%
- residual activity (AXL (human)): 103%
- residual activity (CAMK2G (human)): 99.4%
- residual activity (CDK7 CCNH MNAT1 (human)): 98.7%
- residual activity (CSF1R (human)): 103%
- residual activity (CSNK1G1 (human)): 76.1%
- residual activity (DYRK3 (human)): 92.6%
- residual activity (EPHA4 (human)): 99.3%
- residual activity (EPHB1 (human)): 92.1%
- residual activity (EPHB4 (human)): 101%
- residual activity (ERBB4 (human)): 99.8%
- residual activity (HCK (human)): 95.1%
- residual activity (HIPK2 (human)): 92.1%
- residual activity (INSRR (human)): 97.9%
- residual activity (ITK (human)): 82%
- residual activity (JAK2 JH1 JH2 (human)): 106%
- residual activity (MAP2K2 (human)): 98.7%
- residual activity (MAPK12 (human)): 93.7%
- residual activity (MAPK3 (human)): 87.9%
- residual activity (MAPKAPK3 (human)): 94.3%
- residual activity (MAPKAPK5 (human)): 101%
- residual activity (MERTK (human)): 96.7%
- residual activity (MLTK (human)): 104%
- residual activity (NEK4 (human)): 96.4%
- residual activity (NUAK1 (human)): 94%
- residual activity (NUAK2 (human)): 73.4%
- residual activity (PAK2 (human)): 102%
- residual activity (PASK (human)): 88.7%
- residual activity (PDGFRA (human)): 96.6%
- residual activity (PDPK1 (human)): 101%
- residual activity (PHKG2 (human)): 117%
- residual activity (PKN1 (human)): 94.6%
- residual activity (PKN2 (human)): 100%
- residual activity (PRKACA (human)): 96.6%
- residual activity (PRKCE (human)): 91%
- residual activity (PTK2 (human)): 94.1%
- residual activity (PTK2B (human)): 87.6%
- residual activity (SGK3 (human)): 102%
- residual activity (SRPK1 (human)): 105%
- residual activity (STK10 (human)): 94.3%
- residual activity (WNK3 (human)): 101%
